Source: US20090226398A1, “ANTI-VIRAL COMPOUNDS, COMPOSITIONS, AND METHODS OF USE” (Genelabs Technologies, Inc., priority 2008, published 2009)

System: HCV replication
Assay: Replicon Assay (Huh-lucubineo-ET cells, luciferase readout)
Assay type: cell-based
Details: Hepatitis C virus; ET (Huh-lucubineo-ET) HCV replicon cell line; luciferase activity 48-72 hours after compound addition; 6 dilutions
Experimental: A cell line, ET (Huh-lucubineo-ET) was used for screening of compounds of the present invention for inhibition of HCV replication. The ET cell line was stably transfected with RNA transcripts harboring a I389luc-ubi-neo/NS3-3′/ET; replicon with firefly luciferase-ubiquitin-neomycin phosphotransferase fusion protein and EMCV-IRES driven NS3-5B polyprotein containing the cell culture adaptive mutations (E1202G; T1280I; K1846T) (Krieger at al, 2001 and unpublished). The ET cells were grown in DMEM, supplemented with 10% fetal calf serum, 2 mM Glutamine, Penicillin (100 IU/mL)/Streptomycin (100 μg/mL), 1× nonessential amino acids, and 250 μg/mL G418 (“Geneticin”). They were all available through Life Technologies (Bethesda, Md.). The cells were plated at 0.5−1.0×10^4 cells/well in the 96 well plates and incubated for 24 hrs before adding the test compounds. The compounds were then added to the cells to achieve a final concentration of 5 or 50 μM. Luciferase activity was measured 48-72 hours later by adding a lysis buffer and the substrate (Catalog number Glo-lysis buffer E2661 and Bright-Glo luciferase system E2620 Promega, Madison, Wis.). Cells should not be too confluent during the assay. Percent inhibition of replication was plotted relative to no compound control. For EC50 (effective concentration at which 50% of the maximum inhibition is observed) determinations, 6 dilutions of each compound were used. Compounds were typically diluted 3 fold to span a concentration range of 250 fold. EC50 and similarly TC50 values were calculated by fitting % inhibition at each concentration to the following equation:
% inhibition=100%/[(EC50/[I])^b+1]
where b is Hill's coefficient.

SMILES | EC50
Fc1cccc(-c2nc3cnn(Cc4ccc(-c5ccc(OCCn6ccnc6)cc5C(F)(F)F)nn4)cc-3n2)c1F [Compound 330, 2-(2,3-Difluoro-phenyl)-5-{6-[4-(2-imidazol-1-yl-ethoxy)-2-trifluoromethyl-phenyl]-pyridazin-3-ylmethyl}-5H-imidazo[4,5-d]pyridazine] | ≥ 50000 nM
Fc1cccc(-c2nc3cnn(Cc4ccc(-n5cccn5)cc4)cc-3n2)c1F [Compound 308, 2-(2,3-Difluoro-phenyl)-5-(4-pyrazol-1-yl-benzyl)-5H-imidazo[4,5-d]pyridazine] | ≥ 50000 nM
CC(O)COc1ccc(-c2ccc(Cn3cc4nc(-c5cccc(F)c5F)nc-4cn3)nn2)c(C(F)(F)F)c1 (centres unmarked) [Compound 319, 1-(4-{6-[2-(2,3-Difluoro-phenyl)-imidazo[4,5-d]pyridazin-5-ylmethyl]-pyridazin-3-yl}-3-trifluoromethyl-phenoxy)-propan-2-ol] | 4520 nM
CCOc1ccc(-c2ccc(Cn3cc4nc(-c5ccccc5F)nc-4cn3)cn2)c(C(F)(F)F)c1 [Compound 322, 5-[6-(4-Ethoxy-2-trifluoromethyl-phenyl)-pyridin-3-ylmethyl]-2-(2-fluoro-phenyl)-5H-imidazo[4,5-d]pyridazine] | 33 nM
Fc1cccc(-c2nc3cnn(Cc4ccc(-c5ccc(-c6cccs6)cc5C(F)(F)F)nn4)cc-3n2)c1F [Compound 354, 2-(2,3-Difluoro-phenyl)-5-[6-(4-thiophen-2-yl-2-trifluoromethyl-phenyl)-pyridazin-3-ylmethyl]-5H-imidazo[4,5-d]pyridazine] | 225 nM
COCCOc1ccc(-c2ccc(Cn3cc4nc(-c5cccc(F)c5F)nc-4cn3)nn2)c(C(F)(F)F)c1 [Compound 324, 2-(2,3-Difluoro-phenyl)-5-{6-[4-(2-methoxy-ethoxy)-2-trifluoromethyl-phenyl]-pyridazin-3-ylmethyl}-5H-imidazo[4,5-d]pyridazine] | 65 nM
Cc1ccc(-c2ccc(Cn3cc4nc(-c5cccc(F)c5F)nc-4cn3)nn2)cc1 [Compound 211, 2-(2,3-Difluoro-phenyl)-5-(6-p-tolyl-pyridazin-3-ylmethyl)-5H-imidazo[4,5-d]pyridazine] | 3470 nM
COc1ccc(-c2ccc(Cn3cc4nc(-c5cccc(F)c5F)nc-4cn3)c[n+]2[O-])c(C(F)(F)F)c1 [Compound 338, 2-(2,3-Difluoro-phenyl)-5-[6-(4-methoxy-2-trifluoromethyl-phenyl)-1-oxy-pyridin-3-ylmethyl]-5H-imidazo[4,5-d]pyridazine] | 1300 nM
CC[C@H](C)COc1ccc(-c2ccc(Cn3cc4nc(-c5cccc(F)c5F)nc-4cn3)nn2)c(C(F)(F)F)c1 [Compound 321, 2-(2,3-Difluoro-phenyl)-5-{6-[4-(2-methyl-butoxy)-2-trifluoromethyl-phenyl]-pyridazin-3-ylmethyl}-5H-imidazo[4,5-d]pyridazine] | 45 nM
CCCOc1ccc(-c2ccc(Cn3cc4nc(-c5cccc(F)c5F)nc-4cn3)cc2)cc1 [Compound 109, 2-(2,3-Difluoro-phenyl)-5-(4′-propoxy-biphenyl-4-ylmethyl)-5H-imidazo[4,5-d]pyridazine] | 30000 nM
COc1ccc(-c2cnc(Cn3cc4nc(-c5cccc(F)c5F)nc-4cn3)nc2)c(C(F)(F)F)c1 [Compound 265, 2-(2,3-Difluoro-phenyl)-5-[5-(4-methoxy-2-trifluoromethyl-phenyl)-pyrimidin-2-ylmethyl]-5H-imidazo[4,5-d]pyridazine] | 228 nM
Fc1cccc(-c2nc3cnn(Cc4ccc(-c5ccc(-c6ccncc6)cc5C(F)(F)F)nn4)cc-3n2)c1F [Compound 210, 2-(2,3-Difluoro-phenyl)-5-[6-(4-pyridin-4-yl-2-trifluoromethyl-phenyl)-pyridazin-3-ylmethyl]-5H-imidazo[4,5-d]pyridazine] | 735 nM
COc1ccc(-c2ccc(Cn3cc4nc(-c5cccc(F)c5F)nc-4cn3)cc2N)c(C(F)(F)F)c1 [Compound 356, 4-[2-(2,3-Difluoro-phenyl)-imidazo[4,5-d]pyridazin-5-ylmethyl]-4′-methoxy-2′-trifluoromethyl-biphenyl-2-ylamine] | 100 nM
COc1ccc(-c2ccc(Cn3cc4nc(-c5cccc(F)c5F)nc-4cn3)c(Cl)n2)c(C(F)(F)F)c1 [Compound 255, 5-[2-Chloro-6-(4-methoxy-2-trifluoromethyl-phenyl)-pyridin-3-ylmethyl]-2-(2,3-difluoro-phenyl)-5H-imidazo[4,5-d]pyridazine] | 69 nM
Fc1cccc(-c2nc3cnn(Cc4ccc(Cl)nn4)cc-3n2)c1F [Compound 307, 5-(6-Chloro-pyridazin-3-ylmethyl)-2-(2,3-difluoro-phenyl)-5H-imidazo[4,5-d]pyridazine] | ≥ 50000 nM
Fc1cccc(-c2nc3cnn(Cc4ccc5nsnc5c4)cc-3n2)c1F [Compound 276, 5-Benzo[1,2,5]thiadiazol-5-ylmethyl-2-(2,3-difluoro-phenyl)-5H-imidazo[4,5-d]pyridazine] | ≥ 50000 nM
COc1ccc(-c2ccc(Cn3cc4nc(-c5cccc(F)c5F)nc-4cn3)cc2F)c(C(F)(F)F)c1 [Compound 261, 2-(2,3-Difluoro-phenyl)-5-(2-fluoro-4′-methoxy-2′-trifluoromethyl-biphenyl-4-ylmethyl)-5H-imidazo[4,5-d]pyridazine] | 50 nM
Fc1cccc(-c2nc3cnn(Cc4ccc5sccc5c4)cc-3n2)c1F [Compound 284, 5-Benzothiophen-5-ylmethyl-2-(2,3-difluoro-phenyl)-5H-imidazo[4,5-d]pyridazine] | ≥ 50000 nM
COc1ccc(-c2ccc(Cn3cc4nc(-c5ccccc5F)nc-4cn3)nn2)c(C(F)(F)F)c1 [Compound 317, 2-(2-Fluoro-phenyl)-5-[6-(4-methoxy-2-trifluoromethyl-phenyl)-pyridazin-3-ylmethyl]-5H-imidazo[4,5-d]pyridazine] | 64 nM
Fc1cccc(-c2nc3cnn(Cc4ccc(-c5ccc(Cl)cc5C(F)(F)F)nc4)cc-3n2)c1F [Compound 236, 5-[6-(4-Chloro-2-trifluoromethyl-phenyl)-pyridin-3-ylmethyl]-2-(2,3-difluoro-phenyl)-5H-imidazo[4,5-d]pyridazine] | 15 nM
COc1ccc(-c2ccc(Cn3cc4nc(-c5cccc(F)c5F)nc-4cn3)nc2[N+](=O)[O-])c(C(F)(F)F)c1 [Compound 310, 2-(2,3-Difluoro-phenyl)-5-[5-(4-methoxy-2-trifluoromethyl-phenyl)-6-nitro-pyridin-2-ylmethyl]-5H-imidazo[4,5-d]pyridazine] | 762 nM
Fc1cccc(-c2nc3cnn(Cc4cccc(-c5ccc(C(F)(F)F)cc5C(F)(F)F)c4)cc-3n2)c1F [Compound 256, 5-(2′,4′-Bis-trifluoromethyl-biphenyl-3-ylmethyl)-2-(2,3-difluoro-phenyl)-5H-imidazo[4,5-d]pyridazine] | 9790 nM
Nc1nc(-c2ccc(C(F)(F)F)cc2C(F)(F)F)ccc1Cn1cc2nc(-c3cccc(F)c3F)nc-2cn1 [Compound 360, 6-(2,4-Bis-trifluoromethyl-phenyl)-3-[2-(2,3-difluoro-phenyl)-imidazo[4,5-d]pyridazin-5-ylmethyl]-pyridin-2-ylamine] | 11 nM
Fc1cc(C(F)(F)F)ccc1-c1ccc(Cn2cc3nc(-c4cccc(F)c4F)nc-3cn2)cn1 [Compound 251, 2-(2,3-Difluoro-phenyl)-5-[6-(2-fluoro-4-trifluoromethyl-phenyl)-pyridin-3-ylmethyl]-5H-imidazo[4,5-d]pyridazine] | ≥ 50000 nM
COc1ccc(-c2ccc(Cn3cc4nc(-c5cccc(F)c5F)nc-4cn3)cc2C(=O)O)c(C(F)(F)F)c1 [Compound 346, 4-[2-(2,3-Difluoro-phenyl)-imidazo[4,5-d]pyridazin-5-ylmethyl]-4′-methoxy-2′-trifluoromethyl-biphenyl-2-carboxylic acid] | ≥ 50000 nM
Fc1cccc(-c2nc3cnn(Cc4ccc5occc5c4)cc-3n2)c1F [Compound 283, 5-Benzofuran-5-ylmethyl-2-(2,3-difluoro-phenyl)-5H-imidazo[4,5-d]pyridazine] | ≥ 50000 nM
Fc1cccc(-c2nc3cnn(Cc4ccc(-c5ccc(C(F)(F)F)cc5C(F)(F)F)cn4)cc-3n2)c1F [Compound 129, 5-[5-(2,4-Bis-trifluoromethyl-phenyl)-pyridin-2-ylmethyl]-2-(2,3-difluoro-phenyl)-5H-imidazo[4,5-d]pyridazine] | 19 nM
Fc1cccc(-c2nc3cnn(Cc4ccc(-c5ccc(C(F)(F)F)cc5C(F)(F)F)cc4)cc-3n2)c1F [Compound 244, 5-(2′,4′-Bis-trifluoromethyl-biphenyl-4-ylmethyl)-2-(2,3-difluoro-phenyl)-5H-imidazo[4,5-d]pyridazine] | 9 nM
CCCOc1ccc(-c2ccc(Cn3cc4nc(-c5cccc(F)c5F)nc-4cn3)cn2)c(C(F)(F)F)c1 [Compound 333, 2-(2,3-Difluoro-phenyl)-5-[6-(4-propoxy-2-trifluoromethyl-phenyl)-pyridin-3-ylmethyl]-5H-imidazo[4,5-d]pyridazine] | 10 nM
